{"source": "patent US10881694B2", "about": "“In vitro model for neuronal death” (priority 2003, dated 2021)", "key": {"[1]": {"test_system": "cortical neurons", "assay": "Polarization of somal lipid raft microdomains (CTx-B staining) in cultured cortical neurons", "assay_type": "cell-based, mouse", "conditions": "for percentage of neurons with polarized raft microdomains: cholesterol-depleted vs control neurons; for inhibition of lipid raft polarization: FIG. 3, 25 μM A-beta 25-35 peptide and 300 μM NMDA; for inhibition of lipid raft / microdomain polarization: treatment of cortical cultures, neurotoxic insult not specified"}, "[2]": {"test_system": "cortical neurons", "assay": "Neuronal death by LDH release assay (and chromatin fragmentation, FIG. 3) after neurotoxic exposure", "assay_type": "cell-based, mouse", "conditions": "for effect of co-treatment on neuroprotection by statins: co-treatment with HMG-CoA reductase inhibitor"}, "[3]": {"test_system": "cortical neurons", "assay": "Chromatin integrity (DAPI): nuclei with condensed and fragmented chromatin", "assay_type": "cell-based, mouse", "conditions": "cholesterol-depleted vs control neurons"}, "[4]": {"conditions": "active form of mevastatin; cited from earlier work"}, "[5]": {"conditions": "three hours following 20 μM Aβ 25-35"}}}
{"molecule": "CC[C@H](C)C(=O)O[C@H]1CCC=C2C=C[C@H](C)[C@H](CC[C@@H]3C[C@@H](O)CC(=O)O3)[C@H]21", "note": "[mevastatin]", "values": [{"measurement": "percentage of neurons with polarized raft microdomains", "setting": "[1]; 1 h following 300 μM NMDA", "result": "significantly lower"}, {"measurement": "inhibition of lipid raft polarization", "setting": "[1]", "result": "inhibit lipid raft polarization"}, {"measurement": "percentage of neurons with polarized raft microdomains", "setting": "[1]; [5]", "result": "significantly lower"}, {"measurement": "protection against neurotoxic exposure (LDH release assay and chromatin fragmentation)", "setting": "[2]; 25 μM A-beta 25-35 peptide", "result": "protect against neurotoxic exposure"}, {"measurement": "protection against neurotoxic exposure (LDH release assay and chromatin fragmentation)", "setting": "[2]; 300 μM NMDA", "result": "protect against neurotoxic exposure"}, {"measurement": "percentage of neurons with condensed and fragmented chromatin", "setting": "[3]; 24 h following 300 μM NMDA", "result": "significantly lower"}, {"measurement": "percentage of neurons with condensed and fragmented chromatin", "setting": "[3]; 48 h following 20 μM Aβ 25-35", "result": "significantly lower"}, {"measurement": "lipophilicity relative to simvastatin (times less lipophilic)", "setting": "[4]", "result": "approximately 8 times"}]}
{"molecule": "CC(C)CCC[C@@H](C)[C@H]1CC[C@H]2[C@@H]3CC=C4C[C@@H](O)CC[C@]4(C)[C@H]3CC[C@]12C", "note": "[cholesterol]", "values": [{"measurement": "effect on cholesterol depletion induced resistance to neuronal death (LDH release)", "setting": "[2]; 5 μM cholesterol co-incubated with mevastatin, or 2 mM cholesterol complexed with 2.5% βCD for 15 min after 1% βCD, 20 μM Aβ 25-35 or NMDA", "result": "prevented"}, {"measurement": "effect of co-treatment on neuroprotection by statins", "setting": "[2]", "result": "substantially attenuated"}]}
{"molecule": "C[N+](C)(C)CC(O)CC(=O)[O-]", "note": "(stereo not shown) [carnitine]", "values": [{"measurement": "inhibition of lipid raft / microdomain polarization", "setting": "[1]", "result": "inhibit raft polarization"}]}
{"molecule": "latrunculins", "values": [{"measurement": "inhibition of lipid raft / microdomain polarization", "setting": "[1]", "result": "prevents the polarization of lipid microdomains"}]}
{"molecule": "C=C1[C@@H](C)[C@H]2[C@H](Cc3ccccc3)NC(=O)[C@]23[C@H](OC(C)=O)/C=C/[C@@](C)(O)C(=O)[C@@H](C)C/C=C/[C@H]3[C@@H]1O", "note": "[cytochalasin D]", "values": [{"measurement": "inhibition of lipid raft / microdomain polarization", "setting": "[1]", "result": "prevents the polarization of lipid microdomains"}]}
{"molecule": "CC(O)(CCO)CC(=O)O", "note": "(stereo not shown) [mevalonate]", "values": [{"measurement": "effect of co-treatment on neuroprotection by statins", "setting": "[2]", "result": "substantially attenuated"}]}
{"molecule": "methyl-β-cyclodextrin [βCD]", "values": [{"measurement": "inhibition of raft polarization", "setting": "[1]; 15 min exposure to 25 μM A-beta 25-35 peptide, 1 hr pre-treatment", "result": "inhibition of raft polarization"}, {"measurement": "percentage of neurons with polarized raft microdomains", "setting": "[1]; 1 h following 300 μM NMDA", "result": "significantly lower"}, {"measurement": "inhibition of lipid raft polarization", "setting": "[1]", "result": "inhibit lipid raft polarization"}, {"measurement": "percentage of neurons with polarized raft microdomains", "setting": "[1]; [5]", "result": "significantly lower"}, {"measurement": "inhibition of lipid raft / microdomain polarization", "setting": "[1]", "result": "inhibits lipid raft polarization"}, {"measurement": "protection against neurotoxic exposure (LDH release assay and chromatin fragmentation)", "setting": "[2]; 25 μM A-beta 25-35 peptide", "result": "protect against neurotoxic exposure"}, {"measurement": "protection against neurotoxic exposure (LDH release assay and chromatin fragmentation)", "setting": "[2]; 300 μM NMDA", "result": "protect against neurotoxic exposure"}, {"measurement": "protection against neuronal death / neurotoxic insults", "setting": "[2]; treatment of cortical cultures, insult not specified", "result": "protects against neuronal death"}, {"measurement": "percentage of neurons with condensed and fragmented chromatin", "setting": "[3]; 24 h following 300 μM NMDA", "result": "significantly lower"}, {"measurement": "percentage of neurons with condensed and fragmented chromatin", "setting": "[3]; 48 h following 20 μM Aβ 25-35", "result": "significantly lower"}]}
{"molecule": "A-beta 25-35 peptide: beta-amyloid peptide fragment 25-35, neurotoxic stimulus (GSNKGAIIGLM; Amyloid-beta protein 42; UniProt P05067 696-706, looked up, fragment)", "values": [{"measurement": "induction of raft microdomain polarization to a pole of the neuronal cell body", "setting": "[1]; neurotoxic stimulus, FIG. 1B", "result": "aggregation and polarization of raft microdomains"}]}
